How the values were obtained:
Settings in all cases: 48 h
[1] = test system: NOMO1; test: cell viability relative to DMSO control; higher = less cytotoxic
Summary of the method: (§1)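 NOMO1 or SEM (500 cells/well) or P12-Ichikawa (1000 cells/well) leukemia cells were adapted for at least four passages in each medium. They were seeded in 1536-well plates (5 μl) and pin-dosed with library compounds in DMSO over an 11-point threefold series, 47 μM to 0.79 nM. CellTiter-Glo One luminescence was read after 48 h at 37°C. Viability is the per-plate percentage relative to DMSO wells, with cell-free wells as background.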

[2] = test system: P12-Ichikawa; test: as above
Summary of the method: as §1

[3] = test system: SEM cells; test: as above
Summary of the method: as §1

[4] = test system: NOMO1; test: AUC of viability dose-response curve (% viability x log10 dose units); higher = less sensitive
Summary of the method: (§2)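 In 1536-well plates, leukemia cells adapted to each medium (500 or 1000 cells/well) were exposed for 48 h at 37°C to library compounds in DMSO across 11 threefold doses, 47 μM down to 0.79 nM. Viability was read by CellTiter-Glo One luminescence and normalised per plate to DMSO and cell-free wells. A four-parameter log-logistic fit over log10 doses was integrated by trapezoidal rule. This yielded the area under the curve, with over-full-viability curves scaled and quality-control failures dropped.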

[5] = test system: P12-Ichikawa; test: as above
Summary of the method: as §2

[6] = test system: SEM cells; test: as above
Summary of the method: as §2

O=C1c2c(O)cccc2[C@H]([C@@H]2O[C@H](CO)[C@@H](O)[C@H](O)[C@H]2O)c2cc(CO)cc(O)c21
cell viability [%]
Settings | [1] | [2] | [3]
HPLM + 10% dialyzed FBS, 0.000781 µM | 87 | 91 | 99.7
HPLM + 10% dialyzed FBS, 0.00234 µM | 101 | 95.8 | 39
HPLM + 10% dialyzed FBS, 0.00702 µM | 97.9 | 95.1 | 110
HPLM + 10% dialyzed FBS, 0.0211 µM | 77 | 107 | 105
HPLM + 10% dialyzed FBS, 0.0632 µM | 110 | 107 | 112
HPLM + 10% dialyzed FBS, 0.19 µM | 122 | 98.7 | 111
HPLM + 10% dialyzed FBS, 0.569 µM | 102 | 106 | 116
HPLM + 10% dialyzed FBS, 1.71 µM | 102 | 99.4 | 108
HPLM + 10% dialyzed FBS, 5.12 µM | 111 | 103 | 112
HPLM + 10% dialyzed FBS, 15.4 µM | 93.4 | 98.4 | 116
HPLM + 10% dialyzed FBS, 46.1 µM | 97.5 | 103 | 108
RPMI 5 mM glucose + 10% FBS, 0.000781 µM | 87.8 | 93.9 | 89.4
RPMI 5 mM glucose + 10% FBS, 0.00234 µM | 91.8 | 93.3 | 30.7
RPMI 5 mM glucose + 10% FBS, 0.00702 µM | 81 | 102 | 92.8
RPMI 5 mM glucose + 10% FBS, 0.0211 µM | 80.8 | 109 | 84
RPMI 5 mM glucose + 10% FBS, 0.0632 µM | 94.5 | 105 | 98.2
RPMI 5 mM glucose + 10% FBS, 0.19 µM | 79.8 | 109 | 96.3
RPMI 5 mM glucose + 10% FBS, 0.569 µM | 80.3 | 108 | 106
RPMI 5 mM glucose + 10% FBS, 1.71 µM | 83.1 | 106 | 91.3
RPMI 5 mM glucose + 10% FBS, 5.12 µM | 83.1 | 101 | 93
RPMI 5 mM glucose + 10% FBS, 15.4 µM | 85.8 | 106 | 93.5
RPMI 5 mM glucose + 10% FBS, 46.1 µM | 84.6 | 106 | 106
RPMI 5 mM glucose + 10% dialyzed FBS, 0.000781 µM | 84.7 | 91 | 94
RPMI 5 mM glucose + 10% dialyzed FBS, 0.00234 µM | 80.2 | 96.4 | 27.4
RPMI 5 mM glucose + 10% dialyzed FBS, 0.00702 µM | 106 | 90.9 | 92.4
RPMI 5 mM glucose + 10% dialyzed FBS, 0.0211 µM | 88.3 | 96.8 | 96.7
RPMI 5 mM glucose + 10% dialyzed FBS, 0.0632 µM | 87.6 | 106 | 102
RPMI 5 mM glucose + 10% dialyzed FBS, 0.19 µM | 96.6 | 95.2 | 101
RPMI 5 mM glucose + 10% dialyzed FBS, 0.569 µM | 96.3 | 97 | 114
RPMI 5 mM glucose + 10% dialyzed FBS, 1.71 µM | 86.6 | 95.7 | 109
RPMI 5 mM glucose + 10% dialyzed FBS, 5.12 µM | 89 | 103 | 112
RPMI 5 mM glucose + 10% dialyzed FBS, 15.4 µM | 83.1 | 99.4 | 90.1
RPMI 5 mM glucose + 10% dialyzed FBS, 46.1 µM | 94.6 | 99 | 119

AUC of viability dose-response curve
Settings | [4] | [5] | [6]
HPLM + 10% dialyzed FBS | 455 | 467 | 449
RPMI 5 mM glucose + 10% FBS | 404 | 467 | 431
RPMI 5 mM glucose + 10% dialyzed FBS | 431 | 465 | 441

C[C@@H](c1ncncc1F)[C@](O)(Cn1cncn1)c1ccc(F)cc1F
cell viability [%]
Settings | [1] | [2] | [3]
HPLM + 10% dialyzed FBS, 0.000781 µM | 117 | 111 | 119
HPLM + 10% dialyzed FBS, 0.00234 µM | 121 | 115 | 116
HPLM + 10% dialyzed FBS, 0.00702 µM | 110 | 110 | 118
HPLM + 10% dialyzed FBS, 0.0211 µM | 110 | 107 | 110
HPLM + 10% dialyzed FBS, 0.0632 µM | 125 | 107 | 121
HPLM + 10% dialyzed FBS, 0.19 µM | 114 | 107 | 25.3
HPLM + 10% dialyzed FBS, 0.569 µM | 120 | 110 | 114
HPLM + 10% dialyzed FBS, 1.71 µM | 107 | 108 | 118
HPLM + 10% dialyzed FBS, 5.12 µM | 111 | 103 | 19
HPLM + 10% dialyzed FBS, 15.4 µM | 108 | 102 | 120
HPLM + 10% dialyzed FBS, 46.1 µM | 93.3 | 89.6 | 83.4
RPMI 5 mM glucose + 10% FBS, 0.000781 µM | 111 | 123 | –
RPMI 5 mM glucose + 10% FBS, 0.00234 µM | 111 | 130 | –
RPMI 5 mM glucose + 10% FBS, 0.00702 µM | 114 | 119 | –
RPMI 5 mM glucose + 10% FBS, 0.0211 µM | 103 | 121 | –
RPMI 5 mM glucose + 10% FBS, 0.0632 µM | 108 | 111 | –
RPMI 5 mM glucose + 10% FBS, 0.19 µM | 107 | 119 | –
RPMI 5 mM glucose + 10% FBS, 0.569 µM | 126 | 116 | –
RPMI 5 mM glucose + 10% FBS, 1.71 µM | 108 | 114 | –
RPMI 5 mM glucose + 10% FBS, 5.12 µM | 107 | 98.9 | –
RPMI 5 mM glucose + 10% FBS, 15.4 µM | 91.1 | 105 | –
RPMI 5 mM glucose + 10% FBS, 46.1 µM | 93.8 | 92.6 | –
RPMI 5 mM glucose + 10% dialyzed FBS, 0.000781 µM | 111 | 109 | 123
RPMI 5 mM glucose + 10% dialyzed FBS, 0.00234 µM | 114 | 118 | 125
RPMI 5 mM glucose + 10% dialyzed FBS, 0.00702 µM | 128 | 116 | 126
RPMI 5 mM glucose + 10% dialyzed FBS, 0.0211 µM | 115 | 105 | 126
RPMI 5 mM glucose + 10% dialyzed FBS, 0.0632 µM | 111 | 111 | 141
RPMI 5 mM glucose + 10% dialyzed FBS, 0.19 µM | 97.9 | 104 | 32.3
RPMI 5 mM glucose + 10% dialyzed FBS, 0.569 µM | 108 | 108 | 140
RPMI 5 mM glucose + 10% dialyzed FBS, 1.71 µM | 116 | 107 | 103
RPMI 5 mM glucose + 10% dialyzed FBS, 5.12 µM | 99.8 | 102 | 15.2
RPMI 5 mM glucose + 10% dialyzed FBS, 15.4 µM | 111 | 89.5 | 121
RPMI 5 mM glucose + 10% dialyzed FBS, 46.1 µM | 97.4 | 91.4 | 73.9

AUC of viability dose-response curve
Settings | HPLM + 10% dialyzed FBS | RPMI 5 mM glucose + 10% FBS | RPMI 5 mM glucose + 10% dialyzed FBS
[4] | 462 | 448 | 446
[5] | 464 | 436 | 450
